Residues, ends and D or L forms follow the SMILES beside them. *: point of attachment. Cbz = O=C(OCc1ccccc1)*
Assays:
Caspase-1 = target: T1, Caspase-1 (Homo sapiens, UniProt P29466); test: Inhibitory activity against human Caspase 1
T1 sequence (P29466 whole entry): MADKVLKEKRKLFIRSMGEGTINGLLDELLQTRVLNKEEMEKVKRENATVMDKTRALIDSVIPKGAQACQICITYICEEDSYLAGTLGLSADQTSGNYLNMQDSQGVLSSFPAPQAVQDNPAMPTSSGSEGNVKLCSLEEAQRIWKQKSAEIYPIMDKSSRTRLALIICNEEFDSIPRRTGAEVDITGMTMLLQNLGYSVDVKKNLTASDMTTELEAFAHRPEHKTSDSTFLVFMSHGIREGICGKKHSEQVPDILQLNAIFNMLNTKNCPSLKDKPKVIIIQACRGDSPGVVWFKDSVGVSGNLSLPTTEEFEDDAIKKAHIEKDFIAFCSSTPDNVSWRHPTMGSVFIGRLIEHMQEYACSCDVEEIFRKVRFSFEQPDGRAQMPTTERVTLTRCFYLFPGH

PBMC = test: Inhibition of IL1-beta production in PBMC; assay type: functional, cell-based; details: Homo sapiens

Row | Compound | Ki (Caspase-1) | EC50 (PBMC)
1 | CC(C)[C@H](NC(=O)[C@H](Cc1ccc(O)cc1)NC(=O)OCc1ccccc1)C(=O)N[C@@H](C)C(=O)N[C@H](C=O)CC(=O)O | 180 nM | 3900 nM
2 | O=C[C@H](CC(=O)O)NC(=O)c1cc(NC(=O)c2ccc(Nc3cnc4ccccc4n3)cc2)cs1 | 260 nM | –
3 | O=C[C@H](CC(=O)O)NC(=O)CCCCCNC(=O)c1ccc(Oc2cnc3ccccc3n2)cc1 | 2400 nM | 27000 nM
4 | O=C[C@H](CC(=O)O)NC(=O)C(CCCCNC(=O)c1ccc(Nc2cncc(Cl)n2)cc1)c1cccs1 (some centres not stated) | 54 nM | –
5 | O=C[C@H](CC(=O)O)NC(=O)CCCCCC(=O)Nc1ccc(Nc2cnc3ccccc3n2)cc1 | 2100 nM | –
6 | O=C[C@H](CC(=O)O)NC(=O)CCCCNC(=O)c1ccc(Nc2cnc3ccccc3n2)cc1 | 2800 nM | –
7 | O=C[C@H](CC(=O)O)NC(=O)c1ccc(CNC(=O)c2ccc(Nc3cnc4ccccc4n3)cc2)cc1 | 100 nM | –
8 | Cc1cc(C(=O)NCCCCC(C(=O)N[C@H](C=O)CC(=O)O)c2cccs2)ccc1Nc1cnc2ccccc2n1 (some centres not stated) | 4 nM | 7700 nM
9 | O=C[C@H](CC(=O)O)NC(=O)CCCNC(=O)c1ccc(Nc2cnc3ccccc3n2)cc1 | 5200 nM | –
10 | O=C[C@H](CC(=O)O)NC(=O)C(CCCCNC(=O)c1ccc(Oc2cnc3ccccc3n2)cc1)c1cccs1 (some centres not stated) | – | 12400 nM
11 | O=C[C@H](CC(=O)O)NC(=O)C(CCCCNC(=O)c1ccc(Nc2cnc3ccccc3n2)cc1)c1cccs1 (some centres not stated) | 7 nM | 20500 nM
12 | O=C[C@H](CC(=O)O)NC(=O)C(CCCCNC(=O)c1ccc(Nc2cnc3ccccc3n2)cc1)c1ccccc1F (some centres not stated) | 8 nM | –
13 | CC(C)[C@H](NC(=O)c1ccc(Nc2cnc3ccccc3n2)cc1)C(=O)N[C@@H](C)C(=O)N[C@H](C=O)CC(=O)O | 4 nM | –
14 | O=C[C@H](CC(=O)O)NC(=O)c1ccc(CNC(=O)c2ccc(Nc3cnc4ccccc4n3)cc2)s1 | 35 nM | –
15 | O=C[C@H](CC(=O)O)NC(=O)c1ccc(CNC(=O)c2ccc(Nc3cnc4ccccc4n3)cc2)nc1 | 5 nM | –
16 | O=C[C@H](CC(=O)O)NC(=O)Cc1ccc(CNC(=O)c2ccc(Nc3cnc4ccccc4n3)cc2)s1 | 120 nM | –
17 | O=C[C@H](CC(=O)O)NC(=O)c1cnc(CNC(=O)c2ccc(Nc3cnc4ccccc4n3)cc2)cn1 | 1000 nM | –
18 | Cc1cc(C(=O)NCCCCCC(=O)N[C@H](C=O)CC(=O)O)ccc1Nc1cnc2ccccc2n1 | 320 nM | 7700 nM
19 | CCC(CCCCNC(=O)c1ccc(Nc2cnc3ccccc3n2)cc1)C(=O)N[C@H](C=O)CC(=O)O (some centres not stated) | 16 nM | –
20 | O=C[C@H](CC(=O)O)NC(=O)CCCCCCNC(=O)c1ccc(Nc2cnc3ccccc3n2)cc1 | 2600 nM | –
21 | O=C[C@H](CC(=O)O)NC(=O)[C@H]1CC[C@H](CNC(=O)c2ccc(Nc3cnc4ccccc4n3)cc2)CC1 | 1950 nM | –
22 | O=C[C@H](CC(=O)O)NC(=O)c1csc(CNC(=O)c2ccc(Nc3cnc4ccccc4n3)cc2)c1 | 120 nM | –
23 | Cc1ccc2nc(Nc3ccc(C(=O)NCCCCC(C(=O)N[C@H](C=O)CC(=O)O)c4cccs4)cc3)cnc2c1 (some centres not stated) | 5 nM | –
24 | O=C[C@H](CC(=O)O)NC(=O)CCCCCNC(=O)c1ccc(Nc2cnc3ccccc3n2)cc1 | 190 nM | 4200 nM
25 | O=C[C@H](CC(=O)O)NC(=O)c1ccc(CNC(=O)c2ccc(Nc3cnc4ccccc4n3)cc2)o1 | 2100 nM | –
26 | O=C[C@H](CC(=O)O)NC(=O)CCCCCNC(=O)c1ccc(Nc2cnccn2)cc1 | 37000 nM | > 200000 nM
27 | O=C[C@H](CC(=O)O)NC(=O)C(CCCCNC(=O)c1ccc(Nc2cnccn2)cc1)c1cccs1 (some centres not stated) | 100 nM | 20000 nM
28 | O=C[C@H](CC(=O)O)NC(=O)C(CCCCNC(=O)c1ccc(Nc2cnc3ccccc3n2)cc1)c1ccccc1 (some centres not stated) | 5 nM | –
29 | CC(C)[C@H](NC(=O)OCc1ccccc1)C(=O)N[C@@H](C)C(=O)N[C@H](C=O)CC(=O)O (Cbz-Val-Ala-Asp-aldehyde) | 8 nM | –

From ChEMBL document CHEMBL1149400, “Tethering identifies fragment that yields potent inhibitors of human caspase-1” (Bioorg Med Chem Lett, 2006)
